Experimental data: paper PMC10877925 (Cell Communication and Signaling : CCS, 2024)
pKd: −log10 of the molar value.

Key:
PfEGF1-α = target: T1, PfEGF1-α (Plasmodium falciparum, UniProt Q8I0P6); assay: bio-layer interferometry; type: binding
T1 construct: gene PF3D7_1357000; recombinant, pET28a vector, E. coli BL21; immobilised on NTA biosensor for BLI
T1 sequence (Q8I0P6 1-443): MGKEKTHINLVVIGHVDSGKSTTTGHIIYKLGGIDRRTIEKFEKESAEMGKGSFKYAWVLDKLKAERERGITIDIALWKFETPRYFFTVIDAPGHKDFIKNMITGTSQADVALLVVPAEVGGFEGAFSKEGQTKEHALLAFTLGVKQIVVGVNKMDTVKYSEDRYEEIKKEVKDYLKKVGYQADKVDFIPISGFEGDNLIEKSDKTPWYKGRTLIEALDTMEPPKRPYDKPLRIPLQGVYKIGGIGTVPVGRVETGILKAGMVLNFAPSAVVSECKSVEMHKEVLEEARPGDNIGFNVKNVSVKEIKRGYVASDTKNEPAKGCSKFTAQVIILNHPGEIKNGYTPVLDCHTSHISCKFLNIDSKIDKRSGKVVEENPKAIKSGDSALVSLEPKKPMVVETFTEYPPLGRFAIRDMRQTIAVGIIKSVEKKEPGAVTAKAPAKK

PfSpdsyn = target: T2, PfSpdsyn (Plasmodium falciparum, UniProt Q8II73); assay: bio-layer interferometry; type: binding
T2 construct: gene PF3D7_1129000; 29-residue N-terminal deletion, pET28a vector, E. coli BL21; immobilised on NTA biosensor for BLI
T2 sequence (Q8II73 30-321): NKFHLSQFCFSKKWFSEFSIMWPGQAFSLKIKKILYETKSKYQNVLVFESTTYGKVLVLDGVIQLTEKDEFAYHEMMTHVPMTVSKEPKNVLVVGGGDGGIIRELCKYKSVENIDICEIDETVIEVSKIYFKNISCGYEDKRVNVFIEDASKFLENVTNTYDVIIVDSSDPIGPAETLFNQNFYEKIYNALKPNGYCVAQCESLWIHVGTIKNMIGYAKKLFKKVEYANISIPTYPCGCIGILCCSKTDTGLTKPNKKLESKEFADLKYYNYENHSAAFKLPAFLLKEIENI

Q: `CC1=C(O)C(=O)C=C2C1=CC=C1[C@@]2(C)CC[C@@]2(C)[C@@H]3C[C@](C)(C(=O)O)CC[C@]3(C)CC[C@]12C` [Celastrol] was tested. Which pKd (PfEGF1-α) did it give?
A: The pKd was 3.61.

Q: And the pKd (PfSpdsyn)?
A: Its pKd is 4.17.
